The values that follow come from patent US6291442A, “Pharmacological modulators of voltage-gated potassium ion channels” (The General Hospital Corporation, priority 1999, dated 2001).

SMILES strings stand for the structures. “Also recorded” adds a separate entry of the source.

The test system of one data set is Drosophila Shaker H4 potassium ion channels. The data set can be described thus: Patch voltage clamp recording, time course of channel closure (deactivation). The note with it: inside-out excised patch voltage clamp, FIG. 3. An excerpt:
Standard patch recording methods were used to record potassium channel currents from the transfected cells (Hamill, O. P., Marty, A., Neher, E., Sakmann, B., and Sigworth, F. J., Pfluegers Arch(1981), 391:85, the entire teachings of which are incorporated herein by reference). If expression was sufficiently high, the excised inside-out or excised outside-out recording configurations was used; otherwise the whole cell recording configuration was used. […] Standard extracellular saline was used in the recording pipette, and standard intracellular saline was perfused on the exposed side, or bath side, of the membrane. Test compounds were added to the intracellular saline at the concentration specified.
For recording the time course of channel activation and deactivation, voltage clamp steps were applied from a resting potential of -80 to -100 mV to an activation potential of between -60 and +60 mV; after these activating steps (lasting 5-100 ms in duration), the voltage was returned to a potential of between -120 and -60 mV to monitor the time course of closure, or de-activation, of the channels. Standard experimental solutions contained, in mM: 150 NaCl, 10 KCl, 3 CaCl2, 1 MgCl2, and 10 HEPES, at pH 7.4 in the pipette solution; and 160 KCl, 0.5 MgCl2, 1 EGTA, and 10 HEPES, at pH 7.4 in the bath solution. Solutions with Cd^2+ contained no EGTA.
In Table I, II and III, the time course of closure of Drosophila Shaker H4 potassium ion channels was measured in the presence of a test compound and compared to the time course of closure in the absence of a test compound.
As to `O=C(O)c1ccc([N+](=O)[O-])cc1Oc1cccc([N+](=O)[O-])c1`, the “effect on the maximal level of outward or inward current” value is recorded as “little or no effect”.

Still in this data set, the particulars now being: inside-out excised patch voltage clamp, FIG. 3 and 4.
On to `O=C(O)c1ccc([N+](=O)[O-])cc1Oc1cccc([N+](=O)[O-])c1`, for which the “effect on the closing of the ion channel” value is on record as “slows the closing of the ion channel”.
As to `CCOc1ccc(Nc2cc([N+](=O)[O-])ccc2C(=O)O)cc1` [N-(4-ethoxyphenyl)-4-nitro anthranilic acid], the “effect on the closing of the ion channel” value is “speeds the closing of the ion channel”.

Still in this data set, the particulars now being: inside-out excised patch voltage clamp, FIG. 4.
For the compound `CCOc1ccc(Nc2cc([N+](=O)[O-])ccc2C(=O)O)cc1` [N-(4-ethoxyphenyl)-4-nitro anthranilic acid], the “reduction in the maximal level of outward or inward current” value is on record as less than 20%.

The data set is the same for the next values; noted with them: shaker h4 channel patch, 500 µM.
Consider `Cc1ccc(C(=O)c2ccccc2C(=O)O)cc1` [2-(p-toluoyl)benzoic], for which the “Approximate Increase in Time Course of Closure” value (“Approximate Increase” below) was 2 X.
For `Nc1ccc(C(=O)c2ccccc2C(=O)O)cc1[N+](=O)[O-]` [2-(4-amino-3-nitro-benzoyl)benzoic acid], the “Approximate Increase” value is not below 2 X.
On the same count and under the same terms, as for `COc1ccc(Oc2c(C(=O)O)cccc2[N+](=O)[O-])cc1` [2-(4-methoxyphenoxy)-3-nitrobenzoic acid], the figure is 1.5 X; as for `CC(C(=O)O)c1cccc(Oc2ccccc2)c1` (centres unmarked) [fenoprofen, reference compound], 2.2 X; as for `O=C(O)c1ccccc1C(=O)c1ccc(Cl)cc1` [2-(4-chlorobenzoyl)benzoic acid], 2 X.
On to `Nc1cccc(C(=O)O)c1Oc1ccc(Cl)cc1` [2-(4-chlorophenoxy)-3-aminobenzoic acid], for which the “Approximate Increase” value is reported as 9 X.
For the compound `O=C(O)c1ccccc1C(=O)c1ccc(Cl)c([N+](=O)[O-])c1` [2-(4-chloro-3-nitrobenzoyl)benzoic acid], the “Approximate Increase” value is reported as 2 X.
Turning to `COc1cccc(Oc2c(OC)cccc2C(=O)O)c1` [2-(3-methoxyphenoxy)-3-methoxybenzoic acid], the “Approximate Increase” value is less than 2 X.
For `Nc1cc(C(=O)c2ccccc2C(=O)O)ccc1Cl` [2-(3-amino-4-chlorobenzoyl)benzoic acid], the “Approximate Increase” value is 2 X.
Turning to `Cc1ccc(Sc2ccccc2C(=O)O)c(S(N)(=O)=O)c1` [2-sulfamide-4-methyl-2'-carboxydiphenyl sulfide], the “Approximate Increase” value was less than 2 X.
Take `Nc1ccccc1C(=O)c1ccccc1C(=O)O` [2-aminobenzophenone-2-carboxylic]: the “Approximate Increase” value is listed as 2 X.
Still for that read-out and setting: as for `O=C(O)c1ccccc1C(=O)c1ccccc1` [2-benzoylbenzoic acid], the figure is 2.5 X.
`O=C(O)c1ccccc1[S+]([O-])c1ccccc1` (centres unmarked) [1-carboxydiphenyl sulfoxide]: the “Approximate Increase” value came out at 2.2 X.
Same read-out and setting: as for `O=C(O)c1ccccc1Oc1cccc([N+](=O)[O-])c1` [2-(3-nitrophenoxy)benzoic acid], the figure is 3-4 X; as for `O=C(O)c1cccnc1Nc1cccc(C(F)(F)F)c1` [niflumic acid, reference compound], 2.4 X; as for `CC(=O)Nc1ccc(C=Cc2ccc([N+](=O)[O-])cc2S(=O)(=O)O)c(S(=O)(=O)O)c1` [4-nitro-4'-acetamide-2,2'-disulfonate stilbene], 2 X.

Staying with this data set, now noted: test compound 0.5 mM; compared to closure in the absence of test compound.
For `CCCCN(CCCC)c1ccc(C(=O)c2ccccc2C(=O)O)c(O)c1` [2-(4-dibutylamino-2-hydroxybenzoyl) benzoic acid], the “Approximate Decrease in Time Course of Closure” value (from here on “Approximate Decrease”) turned out to be 6.4 X.
Same read-out and setting: as for `CCOc1ccc(Nc2cc([N+](=O)[O-])ccc2C(=O)O)cc1` [N-(4-ethoxyphenyl)-4-nitro anthranilic acid], the figure is 5-10 X; as for `O=C(O)c1ccc(Br)cc1Oc1ccccc1` [4-bromo-2-(phenoxy) benzoic acid], not below 2 X; as for `COc1cccc(C(=O)c2cc(OC)ccc2C(=O)O)c1` [4-methoxy-2-(3-methoxy-benzoyl)-benzoic acid], not above 2 X.
For the compound `O=C(O)c1c(Cl)c(Cl)c(Cl)c(Cl)c1C(=O)c1ccccc1` [2-benzoyl-3,4,5,6-tetrachloro-benzoic], the “Approximate Decrease” value is not below 2 X.
Take `Nc1cc(Cl)ccc1Nc1ccccc1C(=O)O` [N-(2-amino-4-chlorophenyl) anthranilic acid]: the “Approximate Decrease” value is 2.4 X.
As for `Cc1c(C)c(C)c(C(=O)c2ccccc2C(=O)O)c(C)c1C` [2-(2,3,4,5,6-pentamethylbenzoyl) benzoic acid], the “Approximate Decrease” value amounted to 2 X.
For the compound `Cc1ccc(Cl)c(Nc2ccccc2C(=O)O)c1Cl` [Meclofenamic acid, reference compound], the “Approximate Decrease” value was 2.5 X.
Same read-out and setting: as for `CC(C(=O)O)c1ccc2c(c1)[nH]c1ccc(Cl)cc12` (centres unmarked) [Carprofen, reference compound], the figure is 3.2 X.

A further data set has as its system Shaker class voltage-gated potassium ion channels.
Test: not given
Particulars: tetraethylammonium 5 mM alone; depolarizing pulse +60 mV. The protocol: At a depolarizing pulse of +60 mV, the steady state blockade of current caused by channel-blockers was measured as the current in the presence of the channel-blocker divided by the current in the absence of the channel-blocker.
With `CC[N+](CC)(CC)CC` [tetraethylammonium], the “steady state blockade of current” value was determined as 15%.

Still in this data set, the particulars now being: tetraethylammonium 5 mM in the presence of 10 mM 2-benzoylbenzoic acid; +60 mV.
Take `CC[N+](CC)(CC)CC` [tetraethylammonium]: the “steady state blockade of current” value was determined as 16%.

A further data set has as its system Drosophila Shaker H4 potassium ion channels. The data set is described as follows: Application to intracellular (inside-out patch) versus extracellular (outside-out patch) side of the membrane. The note with it: inside-out versus outside-out excised patch. The class given is cell-based. The protocol: Compounds were applied to the intracellular side of the cell membrane by adding the compound to the solution bathing the exposed face of an excised inside-out patch containing Drosophila Shaker H4 potassium ion channels. Application to the extracellular side of the membrane was performed by adding the compound to the solution bathing the exposed face of an excised outside-out patch containing Drosophila Shaker H4 potassium ion channels.
As to `O=C(O)c1ccccc1C(=O)c1ccccc1` [2-benzoylbenzoic acid], the “side of the cell membrane from which the compound is effective” value was “effective from only one side of the membrane; also recorded: effective only from the intracellular side of the cell membrane”.
